Source: patent US20260184710A1, “CASITAS B-LINEAGE LYMPHOMA PROTOONCOGENE B (CBL-B) DEGRADING COMPOUNDS AND ASSOCIATED METHODS OF USE” (Arvinas Operations, Inc., priority 2022, published 2026)

What was measured:
[1] = target: T1, Cbl-b (Homo sapiens, UniProt Q13191); assay: Cbl-b Degradation Method A (FACS, anti-Cbl-b antibody staining); format: cell-based; settings: Cbl-b-HiBit KI Jurkat Cells, incubated at least 20 hours; for DC50: half maximal degradation, read-out: Cbl-b Degredation Method A IC50; for Dmax: Jurkat, maximum degradation observed, read-out: Cbl-b Degredation Method A Dmax (%)
T1 construct: Cbl-b-HiBit KI Jurkat Cells were purchased from Promega; host or cells: Cbl-b-HiBiT knock-in Jurkat cells
In short: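 Cbl-b-HiBit KI Jurkat cells treated with compound for at least 20 h at 37 °C, then fixed, permeabilized and stained with anti-Cbl-b antibody plus anti-rabbit AF488 secondary. Cbl-b levels read by FACS; DC50 and Dmax (percent of control) derived.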

[2] = target: T1, Cbl-b; assay: Cbl-b Degradation Method B (Nano-Glo HiBiT lytic detection); format: cell-based; settings: Cbl-b-HiBit KI Jurkat Cells, incubated at least 6-24 hours; for DC50: half maximal degradation, read-out: Cbl-b Degredation Method B IC50; for Dmax / Cbl-b Degredation Method B Dmax (%): maximum degradation observed; for Dmax: read-out: Cbl-b Degredation Method B Dmax (%)
In short: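 Cbl-b-HiBiT knock-in Jurkat cells (20,000/well) were treated after ~24 h plating with an 11-point 1:3 series for 6-24 h at 37° C. Remaining Cbl-b measured by Nano-Glo HiBiT lytic luminescence. DC50 and Dmax expressed as % of control.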

T1 sequence (Q13191 whole entry): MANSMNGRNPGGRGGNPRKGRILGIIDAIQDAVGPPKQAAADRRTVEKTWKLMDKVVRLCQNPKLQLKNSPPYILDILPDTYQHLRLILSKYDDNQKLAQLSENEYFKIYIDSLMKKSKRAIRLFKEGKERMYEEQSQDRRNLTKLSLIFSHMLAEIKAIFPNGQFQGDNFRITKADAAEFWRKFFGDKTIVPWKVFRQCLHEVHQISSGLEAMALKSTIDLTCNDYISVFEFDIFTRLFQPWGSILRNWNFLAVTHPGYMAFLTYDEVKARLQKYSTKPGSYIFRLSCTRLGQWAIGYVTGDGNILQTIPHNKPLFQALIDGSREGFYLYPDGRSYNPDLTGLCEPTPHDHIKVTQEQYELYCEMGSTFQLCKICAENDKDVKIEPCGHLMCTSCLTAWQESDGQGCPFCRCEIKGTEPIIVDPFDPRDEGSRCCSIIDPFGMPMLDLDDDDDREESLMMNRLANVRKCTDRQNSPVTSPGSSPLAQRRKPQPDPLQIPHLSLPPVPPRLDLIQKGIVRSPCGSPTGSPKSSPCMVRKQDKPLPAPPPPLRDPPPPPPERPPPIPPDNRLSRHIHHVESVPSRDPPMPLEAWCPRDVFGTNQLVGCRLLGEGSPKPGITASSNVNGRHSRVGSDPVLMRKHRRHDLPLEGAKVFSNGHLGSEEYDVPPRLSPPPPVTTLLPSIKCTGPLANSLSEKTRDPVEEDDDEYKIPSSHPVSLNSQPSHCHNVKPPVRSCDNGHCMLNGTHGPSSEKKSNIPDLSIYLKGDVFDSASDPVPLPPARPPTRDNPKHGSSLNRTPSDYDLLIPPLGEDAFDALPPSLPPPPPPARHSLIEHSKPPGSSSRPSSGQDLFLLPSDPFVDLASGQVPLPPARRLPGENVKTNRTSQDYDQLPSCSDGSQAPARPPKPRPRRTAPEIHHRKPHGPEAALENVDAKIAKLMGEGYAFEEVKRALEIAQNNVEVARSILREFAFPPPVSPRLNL

SMILES | DC50 [1] [nM] | Dmax [1] [%] | DC50 [2] [nM] | Dmax [2] [%] | Cbl-b Degredation Method B Dmax (%) [2]
CC1c2nc(N3CCC(CN4CCN(CC5CCN(Cc6cc7c(c(C(F)(F)F)c6)CN(c6cccc([C@]8(Cc9nncn9C)C[C@@H](C#N)C8)c6)C7=O)C6(CC6)C5)CC4)CC3)ccc2C(=O)N1C1CCC(=O)NC1=O (some centres unmarked) [Example 310, (1r,3r)-3-(3-{6-[(7-{[4-({1-[6-(2,6-dioxopiperidin-3-yl)-7-methyl-5-oxo-5H,6H,7H-pyrrolo[3,4-b]pyridin-2-yl]piperidin-4-yl}methyl)piperazin-1-yl]methyl}-4-azaspiro[2.5]octan-4-yl)methyl]-1-oxo-4-(trifluoromethyl)-2,3-dihydro-1H-isoindol-2-yl}phenyl)-3-[(4-methyl-4H-1,2,4-triazol-3-yl)methyl]cyclobutane-1-carbonitrile] | 5 to 50 | 35 to 70 | 5 to 50 | – | C (C ≤ 35)
Cn1cnnc1CC1(c2cccc(N3Cc4c(cc(CN5CCCC(CN6CCN(c7ccc8c(c7)C(=O)N(C7CCC(=O)NC7=O)C8=O)CC6)C5)cc4C(F)(F)F)C3=O)c2)COC1 (centres unmarked) [Example 76, 2-(2,6-dioxopiperidin-3-yl)-5-{4-[(1-{[2-(3-{3-[(4-methyl-4H-1,2,4-triazol-3-yl)methyl]oxetan-3-yl}phenyl)-3-oxo-7-(trifluoromethyl)-2,3-dihydro-1H-isoindol-5-yl]methyl}piperidin-3-yl)methyl]piperazin-1-yl}-2,3-dihydro-1H-isoindole-1,3-dione] | > 500 | – | > 500 | – | –
Cn1cnnc1CC1(c2cccc(N3Cc4c(cc(N5CCC(C6CN(c7ccc8c(c7)C(=O)N(C7CCC(=O)NC7=O)C8=O)C6)CC5)cc4C(F)(F)F)C3=O)c2)COC1 (centres unmarked) [Example 128, 2-(2,6-dioxopiperidin-3-yl)-5-(3-{1-[2-(3-{3-[(4-methyl-4H-1,2,4-triazol-3-yl)methyl]oxetan-3-yl}phenyl)-3-oxo-7-(trifluoromethyl)-2,3-dihydro-1H-isoindol-5-yl]piperidin-4-yl}azetidin-1-yl)-2,3-dihydro-1H-isoindole-1,3-dione] | > 500 | – | > 500 | – | –
Cn1cnnc1CC1(c2cccc(N3Cc4c(cc(CN5CCC(CN6CCC(Oc7ccc8c(c7)C(=O)N(C7CCC(=O)NC7=O)C8=O)CC6)CC5)cc4C(F)(F)F)C3=O)c2)COC1 (centres unmarked) [Example 30, 2-(2,6-dioxopiperidin-3-yl)-5-({1-[(1-{[2-(3-{3-[(4-methyl-4H-1,2,4-triazol-3-yl)methyl]oxetan-3-yl}phenyl)-3-oxo-7-(trifluoromethyl)-2,3-dihydro-1H-isoindol-5-yl]methyl}piperidin-4-yl)methyl]piperidin-4-yl}oxy)-2,3-dihydro-1H-isoindole-1,3-dione] | > 500 | – | > 500 | – | –
Cn1cnnc1CC1(c2cccc(N3Cc4c(cc(N5CC6(CCN(CC7CCN(c8ccc9c(n8)CN(C8CCC(=O)NC8=O)C9=O)CC7)CC6)C5)cc4C(F)(F)F)C3=O)c2)COC1 (centres unmarked) [Example 131, 3-{2-[4-({2-[2-(3-{3-[(4-methyl-4H-1,2,4-triazol-3-yl)methyl]oxetan-3-yl}phenyl)-3-oxo-7-(trifluoromethyl)-2,3-dihydro-1H-isoindol-5-yl]-2,7-diazaspiro[3.5]nonan-7-yl}methyl)piperidin-1-yl]-5-oxo-5H,6H,7H-pyrrolo[3,4-b]pyridin-6-yl}piperidine-2,6-dione] | 5 to 50 | 35 to 70 | < 5 | 35 to 70 | –
CC1CC(CN2CC3(CCN(c4ccc5c(c4)C(=O)N(C4CCC(=O)NC4=O)C5=O)CC3)C2)CN(Cc2cc3c(c(C(F)(F)F)c2)CN(c2cccc(C4(Cc5nncn5C)COC4)c2)C3=O)C1 (centres unmarked) [Example 92, 2-(2,6-dioxopiperidin-3-yl)-5-{2-[(5-methyl-1-{[2-(3-{3-[(4-methyl-4H-1,2,4-triazol-3-yl)methyl]oxetan-3-yl}phenyl)-3-oxo-7-(trifluoromethyl)-2,3-dihydro-1H-isoindol-5-yl]methyl}piperidin-3-yl)methyl]-2,7-diazaspiro[3.5]nonan-7-yl}-2,3-dihydro-1H-isoindole-1,3-dione] | > 500 | – | > 500 | – | –
CC(C)n1c(=O)n(C2CCC(=O)NC2=O)c2cccc(N3CCC(O[C@H]4CC[C@H](CN5CCCN(Cc6cc7c(c(C(F)(F)F)c6)CN(c6cccc([C@]8(Cc9nncn9C)C[C@@H](C#N)C8)c6)C7=O)CC5)CC4)CC3)c21 (some centres unmarked) [Example 289, (1r,3r)-3-[(4-methyl-4H-1,2,4-triazol-3-yl)methyl]-3-(3-{1-oxo-6-[(4-{[(1r,4r)-4-({1-[1-(2,6-dioxopiperidin-3-yl)-2-oxo-3-(propan-2-yl)-2,3-dihydro-1H-1,3-benzodiazol-4-yl]piperidin-4-yl}oxy)cyclohexyl]methyl}-1,4-diazepan-1-yl)methyl]-4-(trifluoromethyl)-2,3-dihydro-1H-isoindol-2-yl}phenyl)cyclobutane-1-carbonitrile] | 5 to 50 | 35 to 70 | < 5 | – | C (C ≤ 35)

Next, values leading:

DC50 [1] [nM] | Dmax [1] [%] | DC50 [2] [nM] | Dmax [2] [%] | Cbl-b Degredation Method B Dmax (%) [2] | SMILES
< 5 | > 70 | < 5 | 35 to 70 | – | C[C@@H]1CN(C[C@H]2CC[C@H](OC3CCN(c4ccc5c(c4F)CN(C4CCC(=O)NC4=O)C5=O)CC3)CC2)CCN1Cc1cc2c(c(C(F)(F)F)c1)CN(c1cccc(C3(Cc4nncn4C)COC3)c1)C2=O (stereo partly drawn) [Example 195, 3-[4-fluoro-1-oxo-5-(4-{[(1r,4r)-4-{[(3R)-3-methyl-4-{[2-(3-{3-[(4-methyl-4H-1,2,4-triazol-3-yl)methyl]oxetan-3-yl}phenyl)-3-oxo-7-(trifluoromethyl)-2,3-dihydro-1H-isoindol-5-yl]methyl}piperazin-1-yl]methyl}cyclohexyl]oxy}piperidin-1-yl)-2,3-dihydro-1H-isoindol-2-yl]piperidine-2,6-dione]
> 500 | – | > 500 | – | – | Cn1cnnc1CC1(c2cccc(N3Cc4c(cc(NCC[C@H]5CC[C@H](OC6CCN(c7ccc8c(c7F)CN(C7CCC(=O)NC7=O)C8=O)CC6)CC5)cc4C(F)(F)F)C3=O)c2)COC1 (some centres unmarked) [Example 17, 3-[4-fluoro-5-[4-[4-[2-[[2-[3-[3-[(4-methyl-1,2,4-triazol-3-yl)methyl]oxetan-3-yl]phenyl]-3-oxo-7-(trifluoromethyl)isoindolin-5-yl]amino]ethyl]cyclohexoxy]-1-piperidyl]-1-oxo-isoindolin-2-yl]piperidine-2,6-dione]
< 5 | > 70 | < 5 | > 70 | – | Cn1cnnc1C[C@]1(c2cccc(N3Cc4c(cc(CN5CCN(C[C@H]6CC[C@H](OC7CCN(c8ccc9c(c8)CC(=O)N9C8CCC(=O)NC8=O)CC7)CC6)CC5)cc4C(F)(F)F)C3=O)c2)C[C@H](C#N)C1 (some centres unmarked) [Example 219, (1r,3r)-3-[(4-methyl-4H-1,2,4-triazol-3-yl)methyl]-3-(3-{1-oxo-6-[(4-{[(1r,4r)-4-({1-[1-(2,6-dioxopiperidin-3-yl)-2-oxo-2,3-dihydro-1H-indol-5-yl]piperidin-4-yl}oxy)cyclohexyl]methyl}piperazin-1-yl)methyl]-4-(trifluoromethyl)-2,3-dihydro-1H-isoindol-2-yl}phenyl)cyclobutane-1-carbonitrile]
5 to 50 | < 35 | 5 to 50 | – | C (C ≤ 35) | CC1c2c(cc(CN3CCC[C@H](CN4CCN(C[C@H]5CC[C@H](OC6CCN(c7ccc8c(c7F)CN(C7CCC(=O)NC7=O)C8=O)CC6)CC5)CC4(C)C)C3)cc2C(F)(F)F)C(=O)N1c1cccc(C2(Cc3nncn3C)COC2)c1 (stereo partly drawn) [Example 276, 3-(5-(4-(((1S,4r)-4-((3,3-dimethyl-4-(((3S)-1-((1-methyl-2-(3-(3-((4-methyl-4H-1,2,4-triazol-3-yl)methyl)oxetan-3-yl)phenyl)-3-oxo-7-(trifluoromethyl)isoindolin-5-yl)methyl)piperidin-3-yl)methyl)piperazin-1-yl)methyl)cyclohexyl)oxy)piperidin-1-yl)-4-fluoro-1-oxoisoindolin-2-yl)piperidine-2,6-dione]
5 to 50 | 35 to 70 | < 5 | 35 to 70 | – | CC1c2nc(N3CCC(O[C@H]4CC[C@@H](CN5C[C@@H]6C[C@H]5CN6Cc5cc6c(c(C(F)(F)F)c5)CN(c5cccc(C7(Cc8nncn8C)CCC7)c5)C6=O)CC4)CC3)ccc2C(=O)N1C1CCC(=O)NC1=O (stereo partly drawn) [Example 223, 3-[7-methyl-5-oxo-2-(4-{[(1r,4r)-4-{[(1S,4S)-5-{[2-(3-{1-[(4-methyl-4H-1,2,4-triazol-3-yl)methyl]cyclobutyl}phenyl)-3-oxo-7-(trifluoromethyl)-2,3-dihydro-1H-isoindol-5-yl]methyl}-2,5-diazabicyclo[2.2.1]heptan-2-yl]methyl}cyclohexyl]oxy}piperidin-1-yl)-5H,6H,7H-pyrrolo[3,4-b]pyridin-6-yl]piperidine-2,6-dione]
